These results are taken from patent publication US9499538B2, “Estrogen receptor modulators and uses thereof” (Seragon Pharmaceuticals, Inc., priority 2012, dated 2016).

Where only a bound is given, the exact number is not on record here.

In one experiment the test system is MCF-7 cells. In words: Breast Cancer Cell Viability Assays (MCF-7, CellTiter-Glo). The experiment is classed as cell-based. The settings on record: 5 days' compound exposure; for IC50: Homo sapiens, MCF7, 120 h. In short, it runs like this: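 MCF-7 cells (320/well, RPMI with 10% FBS) exposed for 5 days to an eleven-point semilog series, 0.3–0.000003 μM final. Viability read by CellTiter-Glo luminescence, expressed as background-corrected percent of untreated cells.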
A general note: Cellular ATP, detected with luciferase, serves as a proxy for viable cell number.

In a further experiment the target is T1, ER-α in MCF-7 cells (Homo sapiens, UniProt P03372).
T1 construct: endogenous in cells; host or cells: MCF-7
T1 sequence (P03372 1-595): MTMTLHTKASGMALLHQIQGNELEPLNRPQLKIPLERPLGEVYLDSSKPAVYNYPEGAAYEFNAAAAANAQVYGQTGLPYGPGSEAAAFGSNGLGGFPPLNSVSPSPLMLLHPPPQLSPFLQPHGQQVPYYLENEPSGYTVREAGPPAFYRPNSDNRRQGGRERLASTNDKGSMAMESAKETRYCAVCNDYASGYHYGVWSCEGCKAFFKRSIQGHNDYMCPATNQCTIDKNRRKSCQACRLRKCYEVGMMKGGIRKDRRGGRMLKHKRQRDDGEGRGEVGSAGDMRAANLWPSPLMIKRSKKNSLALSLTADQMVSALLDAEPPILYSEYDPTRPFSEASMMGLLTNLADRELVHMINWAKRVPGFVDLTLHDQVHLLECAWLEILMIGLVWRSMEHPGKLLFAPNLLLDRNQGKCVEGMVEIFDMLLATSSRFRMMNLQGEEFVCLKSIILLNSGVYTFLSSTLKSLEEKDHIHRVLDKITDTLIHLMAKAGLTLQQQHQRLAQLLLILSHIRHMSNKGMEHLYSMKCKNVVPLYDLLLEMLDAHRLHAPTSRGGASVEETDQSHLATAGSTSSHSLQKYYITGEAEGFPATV
The experiment can be described thus: Breast Cancer Cell ER-α In Cell Western Assay (SP1). The settings on record: 4 or 24 hr post compound addition; for Emax: MCF7, SP1 antibody, read-out: ER-α In Cell Western Assay (SP1) Max Response; for DC50: SP1 antibody, read-out: ER-α In Cell Western Assay (SP1) IC50. The experiment is classed as cell-based. In short, it runs like this: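 MCF-7 cells in charcoal-stripped FBS medium, treated with 11-point semilog dilutions (0.3–0.000003 μM final) for 4 or 24 h. Fixed cells immunostained with SP1 antibody (800 nm) and DRAQ5 DNA (700 nm); ER/DNA ratio expressed as % of untreated cells.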

By IC50 is commonly meant the concentration needed to halve the response being measured. The low end stands for higher potency, the high end for lower potency. On to `N#Cc1cnccc1/C(=C(\c1ccc(/C=C/C(=O)O)cc1)c1ccc2[nH]nc(F)c2c1)C1CCC1` [Example 74, (E)-3-(4-((E)-2-(3-Cyanopyridin-4-yl)-2-cyclobutyl-1-(3-fluoro-1H-indazol-5-yl)vinyl)phenyl)acrylic acid], for which, in the experiment on MCF-7 cells, the “MCF7 Viability Assay Max Response” value is “++ (++ = a single % value ≧ 40%)” and the IC50 is not above 100 nM. At ER-α in MCF-7 cells, the Emax was not below 40% and the DC50 is not above 100 nM.
Regarding `O=C(O)/C=C/c1ccc(/C(=C(\c2ccc(F)cc2Cl)C2CCC2)c2cc3ccccc3o2)cc1` [Example 75, (E)-3-(4-((E)-1-(Benzofuran-2-yl)-2-(2-chloro-4-fluorophenyl)-2-cyclobutylvinyl)phenyl)acrylic acid], in the experiment with MCF-7 cells, the “MCF7 Viability Assay Max Response” value is “++ (++ = a single % value ≧ 40%)” and the 50% inhibitory concentration (IC50) was not above 100 nM. Further, at ER-α in MCF-7 cells, the Emax is not below 40% and the DC50 is not above 100 nM.
Turning to `COc1cccc2c(/C(=C(/c3ccc(F)cc3Cl)C3CCC3)c3ccc(/C=C/C(=O)O)cc3)coc12` [Example 76, (E)-3-(4-((E)-2-(2-Chloro-4-fluorophenyl)-2-cyclobutyl-1-(7-methoxybenzofuran-3-yl)vinyl)phenyl)acrylic acid], in the experiment with MCF-7 cells, the “MCF7 Viability Assay Max Response” value is recorded as “++ (++ = a single % value ≧ 40%)” and the IC50 is not above 100 nM. Moreover, at ER-α in MCF-7 cells, the Emax is not below 40% and the DC50 is not above 100 nM.
Regarding `O=C(O)/C=C/c1ccc(/C(=C(\c2ccncc2Cl)C2CCC2)c2cc3ccccc3o2)cc1` [Example 77, (E)-3-(4-((E)-1-(Benzofuran-2-yl)-2-(3-chloropyridin-4-yl)-2-cyclobutylvinyl)phenyl)acrylic acid], in the experiment with MCF-7 cells, the “MCF7 Viability Assay Max Response” value is “++ (++ = a single % value ≧ 40%)” and the 50% inhibitory concentration (IC50) was not above 100 nM. Besides, at ER-α in MCF-7 cells, the Emax is not below 40% and the DC50 is not above 100 nM.
On to `COc1cccc2c(/C(=C(/c3ccncc3Cl)C3CCC3)c3ccc(/C=C/C(=O)O)cc3)coc12` [Example 78, (E)-3-(4-((E)-2-(3-Chloropyridin-4-yl)-2-cyclobutyl-1-(7-methoxybenzofuran-3-yl)vinyl)phenyl)acrylic acid], for which, in the experiment on MCF-7 cells, the “MCF7 Viability Assay Max Response” value was “++ (++ = a single % value ≧ 40%)” and the IC50 is not above 100 nM. In addition, on ER-α in MCF-7 cells, the Emax was not below 40% and the DC50 was not above 100 nM.
On to `O=C(O)/C=C/c1ccc(/C(=C(\c2ccc(F)cc2Cl)C2CCC2)c2ccc3[nH]nnc3c2)cc1` [Example 79, (E)-3-(4-((E)-1-(1H-Benzo[d][1,2,3]triazol-5-yl)-2-(2-chloro-4-fluoro-phenyl)-2-cyclobutylvinyl)phenyl)acrylic acid], for which, in the experiment with MCF-7 cells, the “MCF7 Viability Assay Max Response” value is given as “++ (++ = a single % value ≧ 40%)” and the IC50 is not above 100 nM. Besides, at ER-α in MCF-7 cells, the Emax is not below 40% and the DC50 was not above 100 nM.
Consider `O=C(O)/C=C/c1ccc(/C(=C(\c2ccc(F)cc2Cl)C2CCC2)c2cccc3[nH]ncc23)cc1` [Example 80, (E)-3-(4-((E)-2-(2-Chloro-4-fluorophenyl)-2-cyclobutyl-1-(1H-indazol-4-yl)vinyl)phenyl)acrylic acid], for which, in the experiment with MCF-7 cells, the “MCF7 Viability Assay Max Response” value is reported as “++ (++ = a single % value ≧ 40%)” and the IC50 was not above 100 nM. At ER-α in MCF-7 cells, the Emax was not below 40% and the DC50 is not above 100 nM.
For `COc1cc(/C(=C(\c2ccc(/C=C/C(=O)O)cc2)c2ccc3[nH]nc(F)c3c2)C2CCC2)ccn1` [Example 81, (E)-3-(4-((E)-2-Cyclobutyl-1-(3-fluoro-1H-indazol-5-yl)-2-(2-methoxypyridin-4-yl)vinyl)phenyl)acrylic acid], in the experiment with MCF-7 cells, the “MCF7 Viability Assay Max Response” value is given as “++ (++ = a single % value ≧ 40%)” and the IC50 was not above 100 nM. On ER-α in MCF-7 cells, the Emax was not below 40% and the DC50 is not above 100 nM.
Regarding `N#Cc1cscc1/C(=C(\c1ccc(/C=C/C(=O)O)cc1)c1ccc2[nH]nc(F)c2c1)C1CCC1` [Example 82, (E)-3-(4-((E)-2-(4-Cyanothiophen-3-yl)-2-cyclobutyl-1-(3-fluoro-1H-indazol-5-yl)vinyl)phenyl)acrylic acid], in the experiment with MCF-7 cells, the “MCF7 Viability Assay Max Response” value is reported as “++ (++ = a single % value ≧ 40%)” and the half-inhibitory concentration (IC50) was not above 100 nM. Further, at ER-α in MCF-7 cells, the Emax is not below 40% and the DC50 was not above 100 nM.
As for `Cc1cnccc1/C(=C(\c1ccc(/C=C/C(=O)O)cc1)c1ccc2scnc2c1)C1CCC1` [Example 83, (E)-3-(4-((E)-1-(Benzo[d]thiazol-5-yl)-2-cyclobutyl-2-(3-methylpyridin-4-yl)vinyl)phenyl)acrylic acid], in the experiment on MCF-7 cells, the “MCF7 Viability Assay Max Response” value is recorded as “++ (++ = a single % value ≧ 40%)” and the IC50 is not above 100 nM. Also, on ER-α in MCF-7 cells, the Emax is not below 40% and the DC50 was not above 100 nM.
Regarding `O=C(O)/C=C/c1ccc(/C(=C(\c2cccc(-n3cccn3)c2)C2CCC2)c2ccc3[nH]nc(F)c3c2)cc1` [Example 84, (E)-3-(4-((E)-2-(3-(1H-Pyrazol-1-yl)phenyl)-2-cyclobutyl-1-(3-fluoro-1H-indazol-5-yl)vinyl)phenyl)acrylic acid], in the experiment with MCF-7 cells, the “MCF7 Viability Assay Max Response” value is on record as “++ (++ = a single % value ≧ 40%)” and the half-maximal inhibitory concentration (IC50) was not above 100 nM. Also, on ER-α in MCF-7 cells, the Emax was not below 40% and the DC50 is not above 100 nM.
With `COc1cc(C)c(/C(=C(\c2ccc(/C=C/C(=O)O)cc2)c2ccc3scnc3c2)C2CCC2)cn1` [Example 85, (E)-3-(4-((E)-1-(Benzo[d]thiazol-5-yl)-2-cyclobutyl-2-(6-methoxy-4-methylpyridin-3-yl)vinyl)phenyl)acrylic acid], in the experiment on MCF-7 cells, the “MCF7 Viability Assay Max Response” value was “++ (++ = a single % value ≧ 40%)” and the IC50 is not above 100 nM. Moreover, on ER-α in MCF-7 cells, the Emax was not below 40% and the DC50 was not above 100 nM.
Take `Cc1sccc1/C(=C(\c1ccc(/C=C/C(=O)O)cc1)c1ccc2scnc2c1)C1CCC1` [Example 86, (E)-3-(4-((E)-1-(Benzo[d]thiazol-5-yl)-2-cyclobutyl-2-(2-methylthiophen-3-yl)vinyl)phenyl)acrylic acid]: in the experiment with MCF-7 cells, the “MCF7 Viability Assay Max Response” value was “++ (++ = a single % value ≧ 40%)” and the 50% inhibitory concentration (IC50) is not above 100 nM. In addition, on ER-α in MCF-7 cells, the Emax is not below 40% and the DC50 is not above 100 nM.
Regarding `O=C(O)/C=C/c1ccc(/C(=C(\c2cccc(N3CCCC3)c2)C2CCC2)c2ccc3[nH]nc(F)c3c2)cc1` [Example 87, (E)-3-(4-((E)-2-Cyclobutyl-1-(3-fluoro-1H-indazol-5-yl)-2-(3-(pyrrolidin-1-yl)phenyl)vinyl)phenyl)acrylic acid], in the experiment with MCF-7 cells, the “MCF7 Viability Assay Max Response” value was “++ (++ = a single % value ≧ 40%)” and the IC50 is not above 100 nM. Further, on ER-α in MCF-7 cells, the Emax was not below 40% and the DC50 was not above 100 nM.
In the case of `N#Cc1cscc1/C(=C(\c1ccc(/C=C/C(=O)O)cc1)c1ccc2scnc2c1)C1CCC1` [Example 88, (E)-3-(4-((E)-1-(Benzo[d]thiazol-5-yl)-2-(4-cyanothiophen-3-yl)-2-cyclobutylvinyl)phenyl)acrylic acid], in the experiment on MCF-7 cells, the “MCF7 Viability Assay Max Response” value is “++ (++ = a single % value ≧ 40%)” and the IC50 was not above 100 nM. Moreover, at ER-α in MCF-7 cells, the Emax is not below 40% and the DC50 is not above 100 nM.
Take `COc1nccc(/C(=C(\c2ccc(/C=C/C(=O)O)cc2)c2ccc3[nH]nc(F)c3c2)C2CCC2)c1C` [Example 89, (E)-3-(4-((E)-2-Cyclobutyl-1-(3-fluoro-1H-indazol-5-yl)-2-(2-methoxy-3-methylpyridin-4-yl)vinyl)phenyl)acrylic acid]: in the experiment with MCF-7 cells, the “MCF7 Viability Assay Max Response” value is recorded as “++ (++ = a single % value ≧ 40%)” and the IC50 was not above 100 nM. In addition, at ER-α in MCF-7 cells, the Emax was not below 40% and the DC50 was not above 100 nM.
As for `N#Cc1cc(F)ccc1/C(=C(\c1ccc(/C=C/C(=O)O)cc1)c1ccc2scnc2c1)C1CCC1` [Example 90, (E)-3-(4-((E)-1-(Benzo[d]thiazol-5-yl)-2-(2-cyano-4-fluorophenyl)-2-cyclobutylvinyl)phenyl)acrylic acid], in the experiment on MCF-7 cells, the “MCF7 Viability Assay Max Response” value is “++ (++ = a single % value ≧ 40%)” and the IC50 was not above 100 nM. Moreover, on ER-α in MCF-7 cells, the Emax was not below 40% and the DC50 was not above 100 nM.
For the compound `COc1ccc(/C(=C(\c2ccc(/C=C/C(=O)O)cc2)c2ccc3scnc3c2)C2CCC2)cc1` [Example 91, (E)-3-(4-((E)-1-(Benzo[d]thiazol-5-yl)-2-cyclobutyl-2-(4-methoxyphenyl)vinyl)phenyl)acrylic acid], in the experiment on MCF-7 cells, the “MCF7 Viability Assay Max Response” value is given as “++ (++ = a single % value ≧ 40%)” and the IC50 was not above 100 nM. Besides, at ER-α in MCF-7 cells, the Emax was not below 40% and the DC50 was not above 100 nM.
